What follows are compounds tested on oval-leafed pondweed (assay: Test Example 1: herbicidal activity, application before weed generation under submerged conditions (Table 16, symbol C)). Details: 320 g/ha applied herbicide.
Format: in vivo, oval-leafed pondweed (Monochoria vaginalis)
Method in brief: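 Submerged Wagner pots (alluvial soil, 4 cm water) sown with weed seeds and planted with 2.5-leaf rice seedlings; emulsifiable concentrate diluted in water applied to water surface on sowing day. Held in greenhouse at 25-30 °C; injury scored 0-5 by herbicidal rate after three weeks.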

Row | SMILES | Herbicidal effect on C: oval-leafed pondweed (grade 0-5)
1 | C=Cc1ccc(-c2sc3ccc(F)cc3c2-c2c(O)c(C)nn(C)c2=O)cc1 [2-018] | 0 (Herbicidal rate of 5% or less (almost no effect))
2 | COCc1ccc(-c2sc3ccc(F)cc3c2-c2c(O)c(C)nn(C)c2=O)cc1 [2-022] | 5 (Herbicidal rate of 90% or more (almost completely withered))
3 | CCCC(=O)Oc1c(C)nn(C)c(=O)c1-c1c(-c2ccc(COC)cc2)sc2ccc(F)cc12 [2-023] | 0 (Herbicidal rate of 5% or less (almost no effect))

These compounds were tested on Japanese bulrush (assay: Test Example 2: herbicidal activity, application during weed generation under submerged conditions (Table 17, symbol B)). Details: AAH 320 g/ha; application during weed generation, submerged conditions.
Format: in vivo, Japanese bulrush (Schoenoplectus juncoides)
Method in brief: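 Steps: fill Wagner pots with alluvial soil; add water to give 4 cm depth; sow the species mixed; grow under glass at 25–30° C.; at 1–2 leaves apply water-diluted emulsion formulation to the water surface at a fixed herbicide amount; score after 3 weeks.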

Row | SMILES | herbicidal effect rating, B: Japanese bulrush
4 | C=Cc1ccc(-c2sc3ccc(F)cc3c2-c2c(O)c(C)nn(C)c2=O)cc1 [2-018] | 2 (Herbicidal rate of 20% or more and less than 40%)
5 | COCc1ccc(-c2sc3ccc(F)cc3c2-c2c(O)c(C)nn(C)c2=O)cc1 [2-022] | 2 (Herbicidal rate of 20% or more and less than 40%)
6 | CCCC(=O)Oc1c(C)nn(C)c(=O)c1-c1c(-c2ccc(COC)cc2)sc2ccc(F)cc12 [2-023] | 0 (Herbicidal rate of 5% or less (almost no effect))

The compounds below were run on southern crabgrass (assay: Test Example 4: herbicidal effect by soil treatment (Table 19, symbol F)). Details: 320 g/ha.
Format: in vivo, southern crabgrass (Digitaria ciliaris)
Method in brief: (§1)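 Applied as a water-diluted emulsion, the compound was sprayed onto soil covering newly sown seeds. Evaluation came three weeks after application, in a greenhouse held at 25° C. to 30° C.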

Row | SMILES | herbicidal effect rating, F: southern crabgrass
7 | C=Cc1ccc(-c2sc3ccc(F)cc3c2-c2c(O)c(C)nn(C)c2=O)cc1 [2-018] | 0 (Herbicidal rate of 5% or less (almost no effect))
8 | COCc1ccc(-c2sc3ccc(F)cc3c2-c2c(O)c(C)nn(C)c2=O)cc1 [2-022] | 3 (Herbicidal rate of 40% or more and less than 70%)
9 | CCCC(=O)Oc1c(C)nn(C)c(=O)c1-c1c(-c2ccc(COC)cc2)sc2ccc(F)cc12 [2-023] | 4 (Herbicidal rate of 70% or more and less than 90%)

Each compound was assayed on green foxtail (assay: Test Example 4: herbicidal effect by soil treatment (Table 19, symbol G)). Details: 320 g/ha.
Format: in vivo, green foxtail (Setaria viridis)
Method in brief: as §1

Row | SMILES | herbicidal effect rating, G: green foxtail
10 | C=Cc1ccc(-c2sc3ccc(F)cc3c2-c2c(O)c(C)nn(C)c2=O)cc1 [2-018] | 1 (Herbicidal rate of 5% or more and less than 20%)
11 | COCc1ccc(-c2sc3ccc(F)cc3c2-c2c(O)c(C)nn(C)c2=O)cc1 [2-022] | 5 (Herbicidal rate of 90% or more (almost completely withered))
12 | CCCC(=O)Oc1c(C)nn(C)c(=O)c1-c1c(-c2ccc(COC)cc2)sc2ccc(F)cc12 [2-023] | 5 (Herbicidal rate of 90% or more (almost completely withered))

These compounds were tested on barnyard grass (assay: Test Example 4: herbicidal effect by soil treatment (Table 19, symbol H)). Details: 320 g/ha.
Format: in vivo, barnyard grass (Echinochloa crus-galli)
Method in brief: as §1

Row | SMILES | herbicidal effect rating, H: barnyard grass
13 | C=Cc1ccc(-c2sc3ccc(F)cc3c2-c2c(O)c(C)nn(C)c2=O)cc1 [2-018] | 0 (Herbicidal rate of 5% or less (almost no effect))
14 | COCc1ccc(-c2sc3ccc(F)cc3c2-c2c(O)c(C)nn(C)c2=O)cc1 [2-022] | 5 (Herbicidal rate of 90% or more (almost completely withered))
15 | CCCC(=O)Oc1c(C)nn(C)c(=O)c1-c1c(-c2ccc(COC)cc2)sc2ccc(F)cc12 [2-023] | 4 (Herbicidal rate of 70% or more and less than 90%)

These compounds were tested on wild oat (assay: Test Example 4: herbicidal effect by soil treatment (Table 19, symbol I)). Details: 320 g/ha.
Format: in vivo, wild oat (Avena fatua)
Method in brief: as §1

Row | SMILES | herbicidal effect rating, I: wild oat
16 | C=Cc1ccc(-c2sc3ccc(F)cc3c2-c2c(O)c(C)nn(C)c2=O)cc1 [2-018] | 0 (Herbicidal rate of 5% or less (almost no effect))
17 | COCc1ccc(-c2sc3ccc(F)cc3c2-c2c(O)c(C)nn(C)c2=O)cc1 [2-022] | 0 (Herbicidal rate of 5% or less (almost no effect))
18 | CCCC(=O)Oc1c(C)nn(C)c(=O)c1-c1c(-c2ccc(COC)cc2)sc2ccc(F)cc12 [2-023] | 0 (Herbicidal rate of 5% or less (almost no effect))

What follows are compounds tested on blackgrass (assay: Test Example 4: herbicidal effect by soil treatment (Table 19, symbol J)). Details: 320 g/ha.
Format: in vivo, blackgrass (Alopecurus myosuroides)
Method in brief: as §1

Row | SMILES | herbicidal effect rating, J: blackgrass
19 | C=Cc1ccc(-c2sc3ccc(F)cc3c2-c2c(O)c(C)nn(C)c2=O)cc1 [2-018] | 0 (Herbicidal rate of 5% or less (almost no effect))
20 | COCc1ccc(-c2sc3ccc(F)cc3c2-c2c(O)c(C)nn(C)c2=O)cc1 [2-022] | 4 (Herbicidal rate of 70% or more and less than 90%)
21 | CCCC(=O)Oc1c(C)nn(C)c(=O)c1-c1c(-c2ccc(COC)cc2)sc2ccc(F)cc12 [2-023] | 3 (Herbicidal rate of 40% or more and less than 70%)

Each compound was assayed on velvetleaf (assay: Test Example 4: herbicidal effect by soil treatment (Table 19, symbol M)). Details: 320 g/ha.
Format: in vivo, velvetleaf (Abutilon theophrasti)
Method in brief: as §1

Row | SMILES | herbicidal effect rating, M: velvetleaf
22 | C=Cc1ccc(-c2sc3ccc(F)cc3c2-c2c(O)c(C)nn(C)c2=O)cc1 [2-018] | 1 (Herbicidal rate of 5% or more and less than 20%)
23 | COCc1ccc(-c2sc3ccc(F)cc3c2-c2c(O)c(C)nn(C)c2=O)cc1 [2-022] | 4 (Herbicidal rate of 70% or more and less than 90%)
24 | CCCC(=O)Oc1c(C)nn(C)c(=O)c1-c1c(-c2ccc(COC)cc2)sc2ccc(F)cc12 [2-023] | 2 (Herbicidal rate of 20% or more and less than 40%)

These compounds were tested on lambsquarters (assay: Test Example 4: herbicidal effect by soil treatment (Table 19, symbol O)). Details: 320 g/ha.
Format: in vivo, lambsquarters (Chenopodium album)
Method in brief: as §1

Row | SMILES | herbicidal effect rating, O: lambsquarters
25 | C=Cc1ccc(-c2sc3ccc(F)cc3c2-c2c(O)c(C)nn(C)c2=O)cc1 [2-018] | 4 (Herbicidal rate of 70% or more and less than 90%)
26 | COCc1ccc(-c2sc3ccc(F)cc3c2-c2c(O)c(C)nn(C)c2=O)cc1 [2-022] | 4 (Herbicidal rate of 70% or more and less than 90%)
27 | CCCC(=O)Oc1c(C)nn(C)c(=O)c1-c1c(-c2ccc(COC)cc2)sc2ccc(F)cc12 [2-023] | 5 (Herbicidal rate of 90% or more (almost completely withered))

What follows are compounds tested on chickweed (assay: Test Example 4: herbicidal effect by soil treatment (Table 19, symbol P)). Details: 320 g/ha.
Format: in vivo, common chickweed (Stellaria media)
Method in brief: as §1

Row | SMILES | herbicidal effect rating, P: chickweed
28 | C=Cc1ccc(-c2sc3ccc(F)cc3c2-c2c(O)c(C)nn(C)c2=O)cc1 [2-018] | 3 (Herbicidal rate of 40% or more and less than 70%)
29 | COCc1ccc(-c2sc3ccc(F)cc3c2-c2c(O)c(C)nn(C)c2=O)cc1 [2-022] | 3 (Herbicidal rate of 40% or more and less than 70%)
30 | CCCC(=O)Oc1c(C)nn(C)c(=O)c1-c1c(-c2ccc(COC)cc2)sc2ccc(F)cc12 [2-023] | 3 (Herbicidal rate of 40% or more and less than 70%)

What follows are compounds tested on persian speedwell (assay: Test Example 4: herbicidal effect by soil treatment (Table 19, symbol R)). Details: 320 g/ha.
Format: in vivo, Persian speedwell (Veronica persica)
Method in brief: as §1

Row | SMILES | herbicidal effect rating, R: persian speedwell
31 | C=Cc1ccc(-c2sc3ccc(F)cc3c2-c2c(O)c(C)nn(C)c2=O)cc1 [2-018] | 4 (Herbicidal rate of 70% or more and less than 90%)
32 | COCc1ccc(-c2sc3ccc(F)cc3c2-c2c(O)c(C)nn(C)c2=O)cc1 [2-022] | 5 (Herbicidal rate of 90% or more (almost completely withered))
33 | CCCC(=O)Oc1c(C)nn(C)c(=O)c1-c1c(-c2ccc(COC)cc2)sc2ccc(F)cc12 [2-023] | 5 (Herbicidal rate of 90% or more (almost completely withered))

What follows are compounds tested on southern crabgrass (assay: Test Example 5: herbicidal effect by foliage application, plastic box (Table 20, symbol F)). Details: foliage application, 320 g/ha, 3 weeks after application.
Format: in vivo, southern crabgrass (Digitaria ciliaris)
Method in brief: (§2)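 Sow seeds spot-wise in sterilized diluvial soil; cover with ~1.5 cm soil. Grow 14 days in greenhouse, 25° C. to 30° C. Spray foliage with emulsion diluted to predetermined amount. Rate effect after 3 weeks.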

Row | SMILES | effect on southern crabgrass (F)
34 | C=Cc1ccc(-c2sc3ccc(F)cc3c2-c2c(O)c(C)nn(C)c2=O)cc1 [2-018] | 1 (Herbicidal rate of 5% or more and less than 20%)
35 | COCc1ccc(-c2sc3ccc(F)cc3c2-c2c(O)c(C)nn(C)c2=O)cc1 [2-022] | 5 (Herbicidal rate of 90% or more (almost completely withered))
36 | CCCC(=O)Oc1c(C)nn(C)c(=O)c1-c1c(-c2ccc(COC)cc2)sc2ccc(F)cc12 [2-023] | 5 (Herbicidal rate of 90% or more (almost completely withered))

What follows are compounds tested on windgrass (assay: Test Example 5: herbicidal effect by foliage application, plastic box (Table 20, symbol L)). Details: foliage application, 320 g/ha, 3 weeks after application.
Format: in vivo, windgrass (Apera spica-venti)
Method in brief: as §2

Row | SMILES | effect on windgrass (L)
37 | C=Cc1ccc(-c2sc3ccc(F)cc3c2-c2c(O)c(C)nn(C)c2=O)cc1 [2-018] | 5 (Herbicidal rate of 90% or more (almost completely withered))
38 | COCc1ccc(-c2sc3ccc(F)cc3c2-c2c(O)c(C)nn(C)c2=O)cc1 [2-022] | 4 (Herbicidal rate of 70% or more and less than 90%)
39 | CCCC(=O)Oc1c(C)nn(C)c(=O)c1-c1c(-c2ccc(COC)cc2)sc2ccc(F)cc12 [2-023] | 4 (Herbicidal rate of 70% or more and less than 90%)

The compounds below were run on velvetleaf (assay: Test Example 5: herbicidal effect by foliage application, plastic box (Table 20, symbol M)). Details: foliage application, 320 g/ha, 3 weeks after application.
Format: in vivo, velvetleaf (Abutilon theophrasti)
Method in brief: as §2

Row | SMILES | effect on velvetleaf (M)
40 | C=Cc1ccc(-c2sc3ccc(F)cc3c2-c2c(O)c(C)nn(C)c2=O)cc1 [2-018] | 5 (Herbicidal rate of 90% or more (almost completely withered))
41 | COCc1ccc(-c2sc3ccc(F)cc3c2-c2c(O)c(C)nn(C)c2=O)cc1 [2-022] | 5 (Herbicidal rate of 90% or more (almost completely withered))
42 | CCCC(=O)Oc1c(C)nn(C)c(=O)c1-c1c(-c2ccc(COC)cc2)sc2ccc(F)cc12 [2-023] | 5 (Herbicidal rate of 90% or more (almost completely withered))

Each compound was assayed on lambsquarters (assay: Test Example 5: herbicidal effect by foliage application, plastic box (Table 20, symbol O)). Details: foliage application, 320 g/ha, 3 weeks after application.
Format: in vivo, lambsquarters (Chenopodium album)
Method in brief: as §2

Row | SMILES | effect on lambsquarters (O)
43 | C=Cc1ccc(-c2sc3ccc(F)cc3c2-c2c(O)c(C)nn(C)c2=O)cc1 [2-018] | 5 (Herbicidal rate of 90% or more (almost completely withered))
44 | COCc1ccc(-c2sc3ccc(F)cc3c2-c2c(O)c(C)nn(C)c2=O)cc1 [2-022] | 4 (Herbicidal rate of 70% or more and less than 90%)
45 | CCCC(=O)Oc1c(C)nn(C)c(=O)c1-c1c(-c2ccc(COC)cc2)sc2ccc(F)cc12 [2-023] | 4 (Herbicidal rate of 70% or more and less than 90%)

The compounds below were run on persian speedwell (assay: Test Example 5: herbicidal effect by foliage application, plastic box (Table 20, symbol R)). Details: foliage application, 320 g/ha, 3 weeks after application.
Format: in vivo, Persian speedwell (Veronica persica)
Method in brief: as §2

Row | SMILES | effect on persian speedwell (R)
46 | C=Cc1ccc(-c2sc3ccc(F)cc3c2-c2c(O)c(C)nn(C)c2=O)cc1 [2-018] | 5 (Herbicidal rate of 90% or more (almost completely withered))
47 | COCc1ccc(-c2sc3ccc(F)cc3c2-c2c(O)c(C)nn(C)c2=O)cc1 [2-022] | 5 (Herbicidal rate of 90% or more (almost completely withered))
48 | CCCC(=O)Oc1c(C)nn(C)c(=O)c1-c1c(-c2ccc(COC)cc2)sc2ccc(F)cc12 [2-023] | 5 (Herbicidal rate of 90% or more (almost completely withered))

— US20230085307A1, “PYRIDAZINONE COMPOUND AND HERBICIDE” (NISSAN CHEMICAL CORPORATION, priority 2019, published 2023)
